Assay: (§1) The drug is tested on Z-029 corresponding to rat gut metagenome with ENA study accession number: PRJEB37062 and ENA sample accession number: ERS12561828 for biotransformation under anaerobic condition. The drug concentrations were measured over 9 timepoints collected between 0 and 24 hours of incubation by liquid-chromatography-coupled mass spectrometry (LC–MS)
Conditions: 2 µM
Further: call rule not given here.

Bacterial Biotransformation | SMILES
Compound metabolized | CNC(=C[N+](=O)[O-])NCCSCc1ccc(CN(C)C)o1 [RANITIDINE]
Compound metabolized | COc1c(C)c2c(c(O)c1C/C=C(\C)CCC(=O)OCCN1CCOCC1)C(=O)OC2 [MYCOPHENOLATE MOFETIL]

Assay: as §1, with “on Z-018” for “on Z-029”, “to pig” for “to rat”, “number: ERS12561817” for “number: ERS12561828”
Conditions: 2 µM

Bacterial Biotransformation | SMILES
Compound metabolized | CNC(=C[N+](=O)[O-])NCCSCc1ccc(CN(C)C)o1 [RANITIDINE]
Compound metabolized | COc1c(C)c2c(c(O)c1C/C=C(\C)CCC(=O)OCCN1CCOCC1)C(=O)OC2 [MYCOPHENOLATE MOFETIL]

Assay: as §1, with “Z-012” for “Z-029”, “to” for “to rat gut”, “ERS12561812” for “ERS12561828”
Conditions: 2 µM

Bacterial Biotransformation | SMILES
Compound metabolized | CNC(=C[N+](=O)[O-])NCCSCc1ccc(CN(C)C)o1 [RANITIDINE]
Compound metabolized | COc1c(C)c2c(c(O)c1C/C=C(\C)CCC(=O)OCCN1CCOCC1)C(=O)OC2 [MYCOPHENOLATE MOFETIL]

Assay: as §1, with “Z-007” for “Z-029”, “ERS12561807” for “ERS12561828”
Conditions: 2 µM

Bacterial Biotransformation | SMILES
Compound NOT metabolized | CNC(=C[N+](=O)[O-])NCCSCc1ccc(CN(C)C)o1 [RANITIDINE]
Compound metabolized | COc1c(C)c2c(c(O)c1C/C=C(\C)CCC(=O)OCCN1CCOCC1)C(=O)OC2 [MYCOPHENOLATE MOFETIL]

Assay: as §1, with “Z-005” for “Z-029”, “to” for “to rat gut”, “ERS12561805” for “ERS12561828”
Conditions: 2 µM

Bacterial Biotransformation | SMILES
Compound NOT metabolized | CNC(=C[N+](=O)[O-])NCCSCc1ccc(CN(C)C)o1 [RANITIDINE]
Compound metabolized | COc1c(C)c2c(c(O)c1C/C=C(\C)CCC(=O)OCCN1CCOCC1)C(=O)OC2 [MYCOPHENOLATE MOFETIL]

Assay: as §1, with “on Z-003” for “on Z-029”, “to pig” for “to rat”, “number: ERS12561803” for “number: ERS12561828”
Conditions: 2 µM

Bacterial Biotransformation | SMILES
Compound metabolized | CNC(=C[N+](=O)[O-])NCCSCc1ccc(CN(C)C)o1 [RANITIDINE]
Compound metabolized | COc1c(C)c2c(c(O)c1C/C=C(\C)CCC(=O)OCCN1CCOCC1)C(=O)OC2 [MYCOPHENOLATE MOFETIL]

Assay: as §1, with “on WLS-350” for “on Z-029”, “to human” for “to rat”, “number: ERS12561789” for “number: ERS12561828”
Conditions: 2 µM

Bacterial Biotransformation | SMILES
Compound NOT metabolized | CNC(=C[N+](=O)[O-])NCCSCc1ccc(CN(C)C)o1 [RANITIDINE]
Compound metabolized | COc1c(C)c2c(c(O)c1C/C=C(\C)CCC(=O)OCCN1CCOCC1)C(=O)OC2 [MYCOPHENOLATE MOFETIL]

Assay: as §1, with “on WLS-240” for “on Z-029”, “to human” for “to rat”, “number: ERS12561773” for “number: ERS12561828”
Conditions: 2 µM

Bacterial Biotransformation | SMILES
Compound NOT metabolized | CNC(=C[N+](=O)[O-])NCCSCc1ccc(CN(C)C)o1 [RANITIDINE]
Compound metabolized | COc1c(C)c2c(c(O)c1C/C=C(\C)CCC(=O)OCCN1CCOCC1)C(=O)OC2 [MYCOPHENOLATE MOFETIL]

Assay: as §1, with “on WLS-082” for “on Z-029”, “to human” for “to rat”, “number: ERS12561751” for “number: ERS12561828”
Conditions: 2 µM

Bacterial Biotransformation | SMILES
Compound metabolized | CNC(=C[N+](=O)[O-])NCCSCc1ccc(CN(C)C)o1 [RANITIDINE]
Compound metabolized | COc1c(C)c2c(c(O)c1C/C=C(\C)CCC(=O)OCCN1CCOCC1)C(=O)OC2 [MYCOPHENOLATE MOFETIL]

Conditions: human gut metagenome, 24 h, 2 µM

Bacterial Biotransformation | SMILES
Compound NOT metabolized | CNC(=C[N+](=O)[O-])NCCSCc1ccc(CN(C)C)o1 [RANITIDINE]
Compound metabolized | COc1c(C)c2c(c(O)c1C/C=C(\C)CCC(=O)OCCN1CCOCC1)C(=O)OC2 [MYCOPHENOLATE MOFETIL]

Conditions: human gut metagenome, 24 h, 2 µM
Remark: another data set of the same source

Bacterial Biotransformation | SMILES
Compound NOT metabolized | CNC(=C[N+](=O)[O-])NCCSCc1ccc(CN(C)C)o1 [RANITIDINE]
Compound metabolized | COc1c(C)c2c(c(O)c1C/C=C(\C)CCC(=O)OCCN1CCOCC1)C(=O)OC2 [MYCOPHENOLATE MOFETIL]

Conditions: human gut metagenome, 24 h, 2 µM
Remark: another data set of the same source

Bacterial Biotransformation | SMILES
Compound metabolized | CNC(=C[N+](=O)[O-])NCCSCc1ccc(CN(C)C)o1 [RANITIDINE]
Compound metabolized | COc1c(C)c2c(c(O)c1C/C=C(\C)CCC(=O)OCCN1CCOCC1)C(=O)OC2 [MYCOPHENOLATE MOFETIL]

Conditions: human gut metagenome, 24 h, 2 µM
Remark: another data set of the same source

Bacterial Biotransformation | SMILES
Compound NOT metabolized | CNC(=C[N+](=O)[O-])NCCSCc1ccc(CN(C)C)o1 [RANITIDINE]
Compound metabolized | COc1c(C)c2c(c(O)c1C/C=C(\C)CCC(=O)OCCN1CCOCC1)C(=O)OC2 [MYCOPHENOLATE MOFETIL]

Conditions: human gut metagenome, 24 h, 2 µM
Remark: another data set of the same source

Bacterial Biotransformation | SMILES
Compound metabolized | CNC(=C[N+](=O)[O-])NCCSCc1ccc(CN(C)C)o1 [RANITIDINE]
Compound metabolized | COc1c(C)c2c(c(O)c1C/C=C(\C)CCC(=O)OCCN1CCOCC1)C(=O)OC2 [MYCOPHENOLATE MOFETIL]

Conditions: human gut metagenome, 24 h, 2 µM
Remark: another data set of the same source

Bacterial Biotransformation | SMILES
Compound metabolized | CNC(=C[N+](=O)[O-])NCCSCc1ccc(CN(C)C)o1 [RANITIDINE]
Compound metabolized | COc1c(C)c2c(c(O)c1C/C=C(\C)CCC(=O)OCCN1CCOCC1)C(=O)OC2 [MYCOPHENOLATE MOFETIL]

Conditions: human gut metagenome, 24 h, 2 µM
Remark: another data set of the same source

Bacterial Biotransformation | SMILES
Compound metabolized | CNC(=C[N+](=O)[O-])NCCSCc1ccc(CN(C)C)o1 [RANITIDINE]
Compound metabolized | COc1c(C)c2c(c(O)c1C/C=C(\C)CCC(=O)OCCN1CCOCC1)C(=O)OC2 [MYCOPHENOLATE MOFETIL]

Conditions: human gut metagenome, 24 h, 2 µM
Remark: another data set of the same source

Bacterial Biotransformation | SMILES
Compound metabolized | CNC(=C[N+](=O)[O-])NCCSCc1ccc(CN(C)C)o1 [RANITIDINE]
Compound metabolized | COc1c(C)c2c(c(O)c1C/C=C(\C)CCC(=O)OCCN1CCOCC1)C(=O)OC2 [MYCOPHENOLATE MOFETIL]

Conditions: human gut metagenome, 24 h, 2 µM
Remark: another data set of the same source

Bacterial Biotransformation | SMILES
Compound metabolized | CNC(=C[N+](=O)[O-])NCCSCc1ccc(CN(C)C)o1 [RANITIDINE]
Compound metabolized | COc1c(C)c2c(c(O)c1C/C=C(\C)CCC(=O)OCCN1CCOCC1)C(=O)OC2 [MYCOPHENOLATE MOFETIL]

Conditions: human gut metagenome, 24 h, 2 µM
Remark: another data set of the same source

Bacterial Biotransformation | SMILES
Compound metabolized | CNC(=C[N+](=O)[O-])NCCSCc1ccc(CN(C)C)o1 [RANITIDINE]
Compound metabolized | COc1c(C)c2c(c(O)c1C/C=C(\C)CCC(=O)OCCN1CCOCC1)C(=O)OC2 [MYCOPHENOLATE MOFETIL]

Conditions: human gut metagenome, 24 h, 2 µM
Remark: another data set of the same source

Bacterial Biotransformation | SMILES
Compound metabolized | CNC(=C[N+](=O)[O-])NCCSCc1ccc(CN(C)C)o1 [RANITIDINE]
Compound metabolized | COc1c(C)c2c(c(O)c1C/C=C(\C)CCC(=O)OCCN1CCOCC1)C(=O)OC2 [MYCOPHENOLATE MOFETIL]
